Laboratory results: publication PMC11794875, “Molecular basis for azetidine-2-carboxylic acid biosynthesis” (Nature Communications, 2025)
Read-outs that look alike come from different tables or passages of the source.

Columns and labels:
[1] = target: T1, AzeJ (Pseudomonas aeruginosa, UniProt Q9HYR0); assay: X-ray crystal structure, […] Å; format: binding; conditions: co-crystallised with 2 mM SAM, pH 7.0 or 7.2, formed in crystal, active site
T1 construct: gene PA3335; N-terminal His6-SUMO fusion in pETDuet, codon-optimised, SUMO tag cleaved by Ulp1; E. coli BL21 Gold (DE3); homodimer
T1 sequence (Q9HYR0 entry or part of it): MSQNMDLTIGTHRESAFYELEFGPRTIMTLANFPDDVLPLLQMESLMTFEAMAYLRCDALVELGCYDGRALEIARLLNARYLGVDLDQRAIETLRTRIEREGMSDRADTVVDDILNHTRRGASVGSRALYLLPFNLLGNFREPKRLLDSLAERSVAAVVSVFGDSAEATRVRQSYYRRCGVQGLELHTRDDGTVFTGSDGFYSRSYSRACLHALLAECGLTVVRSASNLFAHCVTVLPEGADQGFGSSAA

[2] = target: T1, AzeJ; format: binding; conditions: 100 mM Tris-HCl, pH 8.0, 10 µM protein
[3] = target: T2, VioH (Archangium violaceum, UniProt Z9G018KSM0); assay: in vitro AZE synthase activity assay, HPLC; format: biochemical; conditions: without VioG partner
T2 construct: N-terminal His6-SUMO fusion in pETDuet, codon-optimised, SUMO tag cleaved by Ulp1; E. coli BL21 Gold (DE3); monomer
T2 sequence (Z9G018KSM0 1-236): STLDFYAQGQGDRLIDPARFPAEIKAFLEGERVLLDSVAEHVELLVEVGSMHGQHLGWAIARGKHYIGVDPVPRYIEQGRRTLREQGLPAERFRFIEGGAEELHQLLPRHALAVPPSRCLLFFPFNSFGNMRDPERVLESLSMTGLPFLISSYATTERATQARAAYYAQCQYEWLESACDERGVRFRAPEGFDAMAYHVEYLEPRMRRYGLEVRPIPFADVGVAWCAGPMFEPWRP

## CSC[C@H]1O[C@@H](n2cnc3c(N)ncnc32)[C@H](O)[C@@H]1O [MTA, 5′-methylthioadenosine]
[1]; with AZE
  X-ray crystal structure, 1.95 Å: Fo-Fc electron density maps reveal that MTA and AZE are bound to the active site

## Nc1ncnc2c1ncn2[C@@H]1O[C@H](CSCC[C@H](N)C(=O)O)[C@@H](O)[C@H]1O [SAH, S-adenosyl-L-homocysteine]
[2]; 0–1 mM SAH
  dTm: In the presence of SAM or SAH, the melting temperature of AzeJ increased

## O=C(O)[C@@H]1CCN1 [AZE, azetidine-2-carboxylic acid]
[1]; with MTA
  X-ray crystal structure, 1.95 Å: Fo-Fc electron density maps reveal that MTA and AZE are bound to the active site

## C[S+](CC[C@H](N)C(=O)O)C[C@H]1O[C@@H](n2cnc3c(N)ncnc32)[C@H](O)[C@@H]1O (some centres unmarked) [SAM, S-adenosylmethionine]
[3]
  in vitro AZE synthase activity assay, HPLC: in vitro observation that VioH alone had minimal catalytic activity (Fig. S8)
[2]; 0–1 mM SAM
  dTm: In the presence of SAM or SAH, the melting temperature of AzeJ increased
